Paper PMC6946680, “Modulation of brain cation-Cl^− cotransport via the SPAK kinase inhibitor ZT-1a” (Nature Communications, 2020)

Columns and labels:
Assay in all cases: Kinase profiling panel
Type in all cases: biochemical
PKA = test system: PKA
Procedure: (§1) Supplementary Table 2. ZT-1a kinase profiling data6.
(§2) ZT-1a was tested at 10 and 1 µM against a panel of 140 recombinant kinases in an enzymatic
(§3) activity-based assay performed by the International Centre for Kinase Profiling in the MRC
(§4) Protein Phosphorylation and Ubiquitylation Unit. Values represent % residual kinase activity

IKKe = test system: IKKe
Procedure: as §1, §2, §3, §4

PRAK = test system: PRAK
Procedure: as §1, §2, §3, §4

MAP4K5 = test system: MAP4K5
Procedure: as §1, §2, §3, §4

MAP4K3 = test system: MAP4K3
Procedure: as §1, §2, §3, §4

PDK1 = test system: PDK1
Procedure: as §1, §2, §3, §4

PAK2 = test system: PAK2
Procedure: as §1, §2, §3, §4

MEKK1 = test system: MEKK1
Procedure: as §1, §2, §3, §4

GCK = test system: GCK
Procedure: as §1, §2, §3, §4

PKD1 = test system: PKD1
Procedure: as §1, §2, §3, §4

SGK1 = test system: SGK1
Procedure: as §1, §2, §3, §4

MST3 = test system: MST3
Procedure: as §1, §2, §3, §4

Aurora A = test system: Aurora A
Procedure: as §1, §2, §3, §4

PKCγ = test system: PKCγ
Procedure: as §1, §2, §3, §4

EF2K = test system: EF2K
Procedure: as §1, §2, §3, §4

BRSK1 = test system: BRSK1
Procedure: as §1, §2, §3, §4

p38g MAPK = test system: p38g MAPK
Procedure: as §1, §2, §3, §4

FGF-R1 = test system: FGF-R1
Procedure: as §1, §2, §3, §4

SMILES: Cc1cc(C(C#N)c2ccc(Cl)cc2)c(Cl)cc1NC(=O)c1cc(Cl)ccc1O (stereo not drawn) [ZT-1a, 5-chloro-N-(5-chloro-4-((4-chlorophenyl)(cyano)methyl)-2-methylphenyl)-2-hydroxybenzamide]
- % residual kinase activity (PKA; 1 µM): 80±11%
- % residual kinase activity (PKA; 10 µM): 50±2%
- % residual kinase activity (IKKe; 1 µM): 87±13%
- % residual kinase activity (IKKe; 10 µM): 59±5%
- % residual kinase activity (PRAK; 1 µM): 78±13%
- % residual kinase activity (PRAK; 10 µM): 41±7%
- % residual kinase activity (MAP4K5; 1 µM): 95±28%
- % residual kinase activity (MAP4K5; 10 µM): 76±9%
- % residual kinase activity (MAP4K3; 1 µM): 134±5%
- % residual kinase activity (MAP4K3; 10 µM): 88±2%
- % residual kinase activity (PDK1; 1 µM): 92±6%
- % residual kinase activity (PDK1; 10 µM): 69±17%
- % residual kinase activity (PAK2; 1 µM): 110±4%
- % residual kinase activity (PAK2; 10 µM): 93±8%
- % residual kinase activity (MEKK1; 1 µM): 109±1%
- % residual kinase activity (MEKK1; 10 µM): 93±16%
- % residual kinase activity (GCK; 1 µM): 112±4%
- % residual kinase activity (GCK; 10 µM): 97±3%
- % residual kinase activity (PKD1; 1 µM): 89±0%
- % residual kinase activity (PKD1; 10 µM): 79±10%
- % residual kinase activity (SGK1; 1 µM): 73±14%
- % residual kinase activity (SGK1; 10 µM): 58±5%
- % residual kinase activity (MST3; 1 µM): 109±8%
- % residual kinase activity (MST3; 10 µM): 113±15%
- % residual kinase activity (Aurora A; 1 µM): 73±19%
- % residual kinase activity (Aurora A; 10 µM): 65±1%
- % residual kinase activity (PKCγ; 1 µM): 133±11%
- % residual kinase activity (PKCγ; 10 µM): 120±8%
- % residual kinase activity (EF2K; 1 µM): 104±13%
- % residual kinase activity (EF2K; 10 µM): 56±2%
- % residual kinase activity (BRSK1; 1 µM): 108±14%
- % residual kinase activity (BRSK1; 10 µM): 88±22%
- % residual kinase activity (p38g MAPK; 1 µM): 100±11%
- % residual kinase activity (p38g MAPK; 10 µM): 100±6%
- % residual kinase activity (FGF-R1; 1 µM): 93±6%
- % residual kinase activity (FGF-R1; 10 µM): 101±15%
